Source: patent US9708314B2, “Heterocyclic amide compound” (NISSAN CHEMICAL INDUSTRIES, LTD., priority 2013, dated 2017)

Legend:
Format in all cases: in vivo
[1] = test system: Echinochloa oryzacola Vasing.; assay: Test Example 1: herbicidal activity, application before weed generation in submerged conditions; conditions: Application herbicide amount 320 g/ha; Seventeenth Table
Method in brief: (§1)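 Water-diluted emulsion formulation is applied onto flood water (4 cm deep) covering alluvial soil on the day weed seeds are sown, after transplanting 2.5 leaf stage rice. Rates are expressed per hectare. Injury or control is graded 0–5 three weeks later.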

Monochoria vaginalis = assay: as above; conditions: Application herbicide amount 320 g/ha; Seventeenth Table
Method in brief: as §1

Scirpus juncoides = assay: as above; conditions: Application herbicide amount 320 g/ha; Seventeenth Table
Method in brief: as §1

Abutilon theophrasti = assay: Test Example 4: herbicidal effect by application to foliage (diluvial soil, plastic box); conditions: Application herbicide amount 320 g/ha
Method in brief: (§2)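 Greenhouse plants (25° C. to 30° C., 14 d, diluvial soil) receive a foliar spray of water-diluted emulsifiable formulation at defined g/ha. Grading after 3 weeks uses a six-step herbicidal-ratio scale, with 4 covering 70% to <90% and 1 covering 5% to <20%.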

Alopecurus myosuroides = assay: as above; conditions: Application herbicide amount 320 g/ha
Method in brief: as §2

Apera spica-venti. = assay: as above; conditions: Application herbicide amount 320 g/ha
Method in brief: as §2

Avena fatua = assay: as above; conditions: Application herbicide amount 320 g/ha
Method in brief: as §2

Chenopodium album = assay: as above; conditions: Application herbicide amount 320 g/ha
Method in brief: as §2

Digitaria ciliaris = assay: as above; conditions: Application herbicide amount 320 g/ha
Method in brief: as §2

[2] = test system: Echinochloa crus-galli var. crus-galli; assay: as above; conditions: Application herbicide amount 320 g/ha
Method in brief: as §2

Galium spurium = assay: as above; conditions: Application herbicide amount 320 g/ha
Method in brief: as §2

Lolium multiflorum Lam. = assay: as above; conditions: Application herbicide amount 320 g/ha
Method in brief: as §2

Setaria viridis = assay: as above; conditions: Application herbicide amount 320 g/ha
Method in brief: as §2

Veronica persica = assay: as above; conditions: Application herbicide amount 320 g/ha
Method in brief: as §2

Row | SMILES | A: Echinochloa oryzicola Vasing. (herbicidal effect grade) [1] | C: Monochoria vaginalis (herbicidal effect grade) (Monochoria vaginalis) | B: Scirpus juncoides (herbicidal effect grade) (Scirpus juncoides) | M (Abutilon theophrasti) | J (Alopecurus myosuroides) | L (Apera spica-venti.) | I (Avena fatua) | O (Chenopodium album) | F (Digitaria ciliaris) | H [2] | Q (Galium spurium) | K (Lolium multiflorum Lam.) | G (Setaria viridis) | R (Veronica persica)
1 | C#CCSc1nnc2c(C(=O)Nc3nnc(C)o3)ccc(C(F)(F)F)n12 [1-065] | 5 (Herbicidal ratio of 90% or more (almost completely withered)) | 2 (Herbicidal ratio of 20% or more and less than 40%) | 3 (Herbicidal ratio of 40% or more and less than 70%) | 3 (Herbicidal ratio of 40% or more and less than 70%) | 0 (Herbicidal ratio of 5% or less (almost no effect)) | 0 (Herbicidal ratio of 5% or less (almost no effect)) | 1 (Herbicidal ratio of 5% or more and less than 20%) | 5 (Herbicidal ratio of 90% or more (almost completely withered)) | 4 (Herbicidal ratio of 70% or more and less than 90%) | 1 (Herbicidal ratio of 5% or more and less than 20%) | 0 (Herbicidal ratio of 5% or less (almost no effect)) | 0 (Herbicidal ratio of 5% or less (almost no effect)) | 1 (Herbicidal ratio of 5% or more and less than 20%) | 3 (Herbicidal ratio of 40% or more and less than 70%)
2 | Cc1nnc(NC(=O)c2ccc(C(F)(F)C(F)(F)F)n3c(C(C)C)nnc23)o1 [1-066] | 5 (Herbicidal ratio of 90% or more (almost completely withered)) | 2 (Herbicidal ratio of 20% or more and less than 40%) | 4 (Herbicidal ratio of 70% or more and less than 90%) | 3 (Herbicidal ratio of 40% or more and less than 70%) | 0 (Herbicidal ratio of 5% or less (almost no effect)) | 0 (Herbicidal ratio of 5% or less (almost no effect)) | 1 (Herbicidal ratio of 5% or more and less than 20%) | 5 (Herbicidal ratio of 90% or more (almost completely withered)) | 3 (Herbicidal ratio of 40% or more and less than 70%) | 4 (Herbicidal ratio of 70% or more and less than 90%) | 1 (Herbicidal ratio of 5% or more and less than 20%) | 0 (Herbicidal ratio of 5% or less (almost no effect)) | 1 (Herbicidal ratio of 5% or more and less than 20%) | 4 (Herbicidal ratio of 70% or more and less than 90%)
3 | Cc1nnc(NC(=O)c2ccc(C(F)(F)F)n3c(CO)nnc23)o1 [1-067] | 3 (Herbicidal ratio of 40% or more and less than 70%) | 0 (Herbicidal ratio of 5% or less (almost no effect)) | 0 (Herbicidal ratio of 5% or less (almost no effect)) | 4 (Herbicidal ratio of 70% or more and less than 90%) | 0 (Herbicidal ratio of 5% or less (almost no effect)) | 0 (Herbicidal ratio of 5% or less (almost no effect)) | 1 (Herbicidal ratio of 5% or more and less than 20%) | 5 (Herbicidal ratio of 90% or more (almost completely withered)) | 5 (Herbicidal ratio of 90% or more (almost completely withered)) | 5 (Herbicidal ratio of 90% or more (almost completely withered)) | 3 (Herbicidal ratio of 40% or more and less than 70%) | 0 (Herbicidal ratio of 5% or less (almost no effect)) | 4 (Herbicidal ratio of 70% or more and less than 90%) | 4 (Herbicidal ratio of 70% or more and less than 90%)
